Data on 15 molecules can be found in patent US20240190865A1, “T-TYPE CALCIUM CHANNEL ANTAGONISTS AND USES THEREOF” (THE BOARD OF TRUSTEES OF THE LELAND STANFORD JUNIOR …, priority 2021, published 2024).

Bounds are passed on as bounds.

Chain of Cav3.2 (O95180 whole entry): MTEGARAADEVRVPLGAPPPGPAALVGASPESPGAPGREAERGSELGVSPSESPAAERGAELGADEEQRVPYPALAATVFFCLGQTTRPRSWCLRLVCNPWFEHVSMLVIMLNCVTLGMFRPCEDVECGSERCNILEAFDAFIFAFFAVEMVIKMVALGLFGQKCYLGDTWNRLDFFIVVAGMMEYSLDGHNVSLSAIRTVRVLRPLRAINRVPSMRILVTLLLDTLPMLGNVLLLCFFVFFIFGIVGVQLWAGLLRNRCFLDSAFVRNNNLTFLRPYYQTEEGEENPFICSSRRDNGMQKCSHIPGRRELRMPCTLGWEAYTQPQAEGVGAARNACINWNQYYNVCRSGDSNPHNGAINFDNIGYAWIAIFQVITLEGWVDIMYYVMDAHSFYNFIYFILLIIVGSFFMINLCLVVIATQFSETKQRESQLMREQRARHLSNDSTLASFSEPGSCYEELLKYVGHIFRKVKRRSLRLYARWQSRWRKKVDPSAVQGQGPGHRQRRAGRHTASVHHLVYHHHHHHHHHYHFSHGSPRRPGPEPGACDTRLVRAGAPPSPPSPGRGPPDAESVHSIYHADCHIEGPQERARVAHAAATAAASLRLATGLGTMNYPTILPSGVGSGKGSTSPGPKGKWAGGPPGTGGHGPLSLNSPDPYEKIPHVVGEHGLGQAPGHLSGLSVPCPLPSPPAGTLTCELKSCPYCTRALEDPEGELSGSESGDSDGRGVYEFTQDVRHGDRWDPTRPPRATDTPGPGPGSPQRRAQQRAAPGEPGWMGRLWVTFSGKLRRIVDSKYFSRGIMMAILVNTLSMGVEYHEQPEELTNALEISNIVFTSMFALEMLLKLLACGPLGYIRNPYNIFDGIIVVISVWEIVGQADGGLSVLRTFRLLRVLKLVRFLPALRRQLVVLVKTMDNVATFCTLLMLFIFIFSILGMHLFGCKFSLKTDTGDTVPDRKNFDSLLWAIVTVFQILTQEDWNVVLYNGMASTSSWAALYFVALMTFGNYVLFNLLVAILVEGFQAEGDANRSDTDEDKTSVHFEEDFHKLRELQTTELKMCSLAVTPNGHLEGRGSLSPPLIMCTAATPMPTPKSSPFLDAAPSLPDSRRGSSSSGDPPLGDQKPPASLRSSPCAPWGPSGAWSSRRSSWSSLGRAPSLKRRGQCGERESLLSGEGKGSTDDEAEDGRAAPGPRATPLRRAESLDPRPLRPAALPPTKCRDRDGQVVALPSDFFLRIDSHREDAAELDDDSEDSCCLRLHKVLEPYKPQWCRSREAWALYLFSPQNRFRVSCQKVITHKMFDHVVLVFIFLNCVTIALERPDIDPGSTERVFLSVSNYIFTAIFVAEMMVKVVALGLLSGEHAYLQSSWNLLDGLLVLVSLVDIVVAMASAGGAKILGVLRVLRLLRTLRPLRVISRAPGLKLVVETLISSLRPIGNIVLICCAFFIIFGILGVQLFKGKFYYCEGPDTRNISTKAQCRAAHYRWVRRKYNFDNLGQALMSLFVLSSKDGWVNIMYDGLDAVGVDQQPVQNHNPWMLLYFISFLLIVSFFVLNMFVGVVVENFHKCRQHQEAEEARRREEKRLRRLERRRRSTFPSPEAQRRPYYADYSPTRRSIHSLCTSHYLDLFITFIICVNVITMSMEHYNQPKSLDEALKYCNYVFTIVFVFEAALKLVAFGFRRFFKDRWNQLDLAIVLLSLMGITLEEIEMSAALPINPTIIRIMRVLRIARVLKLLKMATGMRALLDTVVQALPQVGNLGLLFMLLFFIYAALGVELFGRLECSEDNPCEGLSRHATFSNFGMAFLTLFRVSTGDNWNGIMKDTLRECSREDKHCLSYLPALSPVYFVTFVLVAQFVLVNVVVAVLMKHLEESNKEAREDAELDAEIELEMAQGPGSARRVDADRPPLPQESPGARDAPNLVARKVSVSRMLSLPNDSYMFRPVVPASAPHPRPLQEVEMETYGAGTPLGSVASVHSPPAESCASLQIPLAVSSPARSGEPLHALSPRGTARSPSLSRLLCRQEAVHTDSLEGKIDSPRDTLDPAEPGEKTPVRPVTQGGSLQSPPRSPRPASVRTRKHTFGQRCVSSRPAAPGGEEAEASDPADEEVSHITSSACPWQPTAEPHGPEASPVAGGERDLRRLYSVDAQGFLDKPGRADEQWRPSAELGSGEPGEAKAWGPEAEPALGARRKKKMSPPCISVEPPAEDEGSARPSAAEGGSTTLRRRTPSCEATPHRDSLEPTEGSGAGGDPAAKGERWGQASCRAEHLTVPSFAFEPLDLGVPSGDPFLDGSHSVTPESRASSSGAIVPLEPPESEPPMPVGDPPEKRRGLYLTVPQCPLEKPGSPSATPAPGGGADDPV

The target of the experiment is Cav3.2 (Homo sapiens (Human), UniProt O95180). The experiment can be described thus: In vitro patch clamp assay (SyncroPatch 384PE). The note with it: HEK293 cells. The experiment is classed as cell-based. On the procedure:
Patch clamp assays were performed at Charles River. HEK293 cells were cultured in Dulbecco's Modified Eagle Medium/Nutrient Mixture F-12 (D-MEM/F-12) supplemented with 10% fetal bovine serum, 100 U/mL penicillin G sodium, 100 μg/mL streptomycin sulfate and 500 μg/mL G418. Before testing, cells in culture dishes were washed twice with Hank's Balanced Salt Solution, treated with Accutase™ and re-suspended in the culture media (˜20×10^6 cells in 20 mL). Cells in suspension were allowed to recover for 10 minutes in tissue culture incubator set at 37° C. in a humidified 95% air: 5% CO2 atmosphere. Immediately before use in the SyncroPatch 384PE system (SP384PE), the cells were washed twice in extracellular buffer (HB-PS) to remove the culture medium and re-suspended in 20 mL of HB-PS. Extracellular buffer was loaded into the wells of Nanion 384-well Patch Clamp (NPC-384, 4×M) chip (60 μL per well). Then, cell suspension was pipetted into the wells (20 μL per well) of the chip. After establishment of the whole-cell configuration, membrane currents were recorded using patch clamp amplifier in the SP384PE system.
A general note: Patch clamp records ionic current or voltage across a cell membrane.
As to `C[C@@H](NC(=O)Cc1ccc(C2CC2(F)F)cc1)c1cc2cnn(CC(F)(F)F)c2cn1` (single isomer, unassigned) [Example 30], the midpoint of inhibition, the IC50, lay at 475 nM.
In the case of `C[C@@H](NC(=O)Cc1ccc(C2CC2(F)F)cc1)c1cc2cnn(CC(F)(F)F)c2cn1` (single isomer, unassigned) [Example 31], the IC50 (in general, the midpoint of a concentration-inhibition curve) was found to be 505 nM.
Under `CC(C)c1ccc(CC(=O)N[C@H](C)c2cc3cnn(C)c3cn2)cc1` [Example 1, (R)-2-(4-isopropylphenyl)-N-(1-(1-methyl-1H-pyrazolo[3,4-c]pyridin-5-yl)ethyl)acetamide] stands 522 nM; under `CC(C)c1ccc(CC(=O)N[C@H](C)c2cc3cn(C)nc3cn2)cc1` [Example 2, (R)-2-(4-isopropylphenyl)-N-(1-(2-methyl-2H-pyrazolo[3,4-c]pyridin-5-yl)ethyl)acetamide], 6450 nM.
Under `CC(C)c1ccc(CC(=O)N[C@H](C)c2cc3c(cn2)cnn3C)cc1` [Example 3, (R)-2-(4-isopropylphenyl)-N-(1-(1-methyl-1H-pyrazolo[4,3-c]pyridin-6-yl)ethyl)acetamide] stands over 10000 nM; under `CC(C)c1ccc(CC(=O)N[C@H](C)c2cc3nn(C)cc3cn2)cc1` [Example 4, (R)-2-(4-isopropylphenyl)-N-(1-(2-methyl-2H-pyrazolo[4,3-c]pyridin-6-yl)ethyl)acetamide], over 10000 nM.
The same measure for `Cc1noc2cc([C@@H](C)NC(=O)Cc3ccc(C(C)C)cc3)ncc12` [Example 5, (R)-2-(4-isopropylphenyl)-N-(1-(3-methylisoxazolo[4,5-c]pyridin-6-yl)ethyl)acetamide]: 1220 nM; for `Cc1noc2cnc([C@@H](C)NC(=O)Cc3ccc(C(C)C)cc3)cc12` [Example 6, (R)-2-(4-isopropylphenyl)-N-(1-(3-methylisoxazolo[5,4-c]pyridin-5-yl)ethyl)acetamide]: 7840 nM.
`CCCn1ncc2cc([C@@H](C)NC(=O)Cc3ccc(C(C)C)cc3)ncc21` [Example 7, (R)-2-(4-isopropylphenyl)-N-(1-(1-propyl-1H-pyrazolo[3,4-c]pyridin-5-yl)ethyl)acetamide] yielded an IC50 of 110 nM.
In turn, `CCn1ncc2cc([C@@H](C)NC(=O)Cc3ccc(C(C)C)cc3)ncc21` [Example 8, (R)—N-(1-(1-ethyl-1H-pyrazolo[3,4-c]pyridin-5-yl)ethyl)-2-(4-isopropylphenyl)acetamide] registered an IC50 of 126 nM.
Consider `CC(C)c1ccc(CC(=O)N[C@H](C)c2cc3cnn(CC(F)(F)F)c3cn2)cc1` [Example 9, (R)-2-(4-isopropylphenyl)-N-(1-(1-(2,2,2-trifluoroethyl)-1H-pyrazolo[3,4-c]pyridin-5-yl)ethyl)acetamide], for which it took 44 nM to reach half-maximal inhibition (IC50).
Under `C[C@@H](NC(=O)Cc1ccc(C2(C(F)(F)F)CC2)cc1)c1cnc2c(cnn2C)c1` [Example 10, (R)—N-(1-(1-methyl-1H-pyrazolo[3,4-b]pyridin-5-yl)ethyl)-2-(4-(1-(trifluoromethyl)cyclopropyl)phenyl)acetamide] stands over 10000 nM; under `CCCn1cc2cc([C@@H](C)NC(=O)Cc3ccc(C(C)C)cc3)ncc2n1` [Example 11, (R)-2-(4-isopropylphenyl)-N-(1-(2-propyl-2H-pyrazolo[3,4-c]pyridin-5-yl)ethyl)acetamide], 2420 nM; under `C[C@@H](NC(=O)Cc1ccc(C2(C(F)(F)F)CC2)cc1)c1cc2cnn(C)c2cn1` [Example 12, (R)—N-(1-(1-methyl-1H-pyrazolo[3,4-c]pyridin-5-yl)ethyl)-2-(4-(1-(trifluoromethyl)cyclopropyl)phenyl)acetamide], 647 nM.
The same measure for `CC(C)c1ccc(CC(=O)N[C@H](C)c2cc3cnn(C)c3nn2)cc1` [Example 13, (R)-2-(4-isopropylphenyl)-N-(1-(1-methyl-1H-pyrazolo[3,4-c]pyridazin-5-yl)ethyl)acetamide]: 710 nM.
